Structures are written as SMILES.

This data set in a line: in vitro. Particulars: human, hela cells, % viability.

For `O=C(Nc1c[nH]c(=O)[nH]c1=O)c1ccc(Oc2ccc(C(=O)Nc3c[nH]c(=O)[nH]c3=O)cc2)cc1` [CBK261184], the viability at 28.5 h, 10 µM amounted to 108%.

`CNC(=O)NC(=O)C1CCN(CCc2cccs2)CC1` [CBK034960]: the viability at 28.5 h, 10 µM is 106%. `CN(CC1CC1)C(=O)Cn1cnc2c(F)cc(Br)cc2c1=O` [CBK305227]: the viability at 28.5 h, 10 µM came to 87.2%. Still for that read-out and setting: the value for `Cc1ccc2c(C)c(-c3cncn3C(C)CN3CCOCC3)oc2c1` (centres unmarked) [CBK281796] was 107%; that for `O=c1oc2ccc(Cl)cc2n1C1CCN(Cc2ccco2)CC1` [CBK284342] was 102%. Same read-out and setting: in the case of `FC(F)(F)c1cccc(OCCOc2nccnc2N2CCNCC2)c1` [CBK014518G] it was 105%. For `O=C1NC(=S)NC(=O)C1=Cc1ccc(-c2ccc([N+](=O)[O-])cc2Cl)o1` [CBK261820], under “bulk resorufin, single well”, the viability at 28.5 h, 10 µM came out at 89.2%. In the case of `CCCCOc1ccc(OC(=O)C2CCN(CCCC)CC2)cc1` [CBK122680], the viability at 28.5 h, 10 µM was 112%.

Regarding `COc1cc(Cl)ccc1NC(=O)Oc1cccc2cnccc12` [CBK012882], for the setting “bulk resorufin, single well”, the viability at 28.5 h, 10 µM turned out to be 79.9%. With `CC1(C(=O)O)CCCC2(C)c3cc(O)ccc3CCC12` (centres unmarked) [CBK027214], the viability at 28.5 h, 10 µM stood at 97.4%. On the same count and under the same terms, the value for `Cc1ccc(S(=O)(=O)NCC(=O)Nc2ccc(Cl)cn2)cc1` [CBK091357] was 105%; that for `Cc1ccc([N+](=O)[O-])cc1NC(=O)c1cc(S(=O)(=O)N(C)C)c(Cl)cc1Cl` [CBK266764] was 105%. Still for that read-out and setting: in the case of `Cc1ccc(NC(=O)CSCc2nc3ccccc3[nH]2)cc1` [CBK267299] it was 108%.

Regarding `O=C(CCn1c(CO)nc2ccccc21)c1ccccc1` [CBK296947], the viability at 28.5 h, 10 µM worked out at 102%.

`CS(=O)(=O)Nc1nc2ccc(S(C)(=O)=O)cc2s1` [CBK092166]: the viability at 28.5 h, 10 µM stood at 100%. Same read-out and setting: in the case of `O=C(N1CCC(Oc2nccnc2OCc2ccc(Cl)cc2F)CC1)C(F)(F)F` [CBK164142] it was 89.5%; in that of `Oc1ccc(-c2n[nH]cc2-c2cnn(-c3ccccc3)c2)c(O)c1O` [CBK266948], 104%; in that of `Cc1cccnc1NC(=S)Nc1ccc(S(N)(=O)=O)cc1` [CBK267049], 111%. Same read-out and setting: the value for `Nc1ccccc1Sc1ccc(C(F)(F)F)cn1` [CBK093782] was 91.9%. On the same count and under the same terms, the value for `Cc1cc(Cn2nnc(-c3cccnc3)n2)cc(C)c1O` [CBK291130] was 113%. Take `COCCN(C(=O)CSc1ccc2ccccc2n1)C1CCS(=O)(=O)C1` (centres unmarked) [CBK304988]: the viability at 28.5 h, 10 µM was determined as 96.4%. Still for that read-out and setting: the value for `Cn1cc(CN2CCOC(c3nc(C(C)(C)C)cs3)C2)nn1` (centres unmarked) [CBK304783] was 90.5%; that for `COc1ccc(COc2nccnc2N2CCCC2)cc1OC` [CBK116613] was 94.8%; that for `CCc1nn(CC(=O)N2CCCCC2C)c(=O)c2cc3occc3n12` (centres unmarked) [CBK283676] was 67.5%. Consider `Cc1ccc(C(C)(C)CC(C)NC2C3CC4CC(C3)CC2C4)o1` (centres unmarked) [CBK262871], for which the viability at 28.5 h, 10 µM came to 93.9%. Same read-out and setting: the value for `Cc1noc(C)c1NC(=O)c1cncnc1` [CBK200382] was 112%.

Take `CCNC(=O)N1CC2(CCN(CCOCC)CC2)c2ccccc21` [CBK136972]: the viability at 28.5 h, 10 µM came out at 90.5%. Still for that read-out and setting: the value for `CCN1CCN(Cc2c[nH]c3ccccc23)CC1` [CBK261540] was 99.4%.

With `COc1ccc(Oc2nccc(N3CCCN(Cc4ccc(C(F)(F)F)cc4)CC3)n2)cc1OC` [CBK084152], the viability at 28.5 h, 10 µM came to 98.2%. On the same count and under the same terms, the value for `O=C(NCC1CCCO1)c1ccc2c(c1)C(=O)N(c1ccccc1-c1ccccc1)C2=O` (centres unmarked) [CBK262777] was 86%; that for `COc1cc(-c2cn3ccnc3c(N[C@@H]3CCN(Cc4ccccc4)C3)n2)cc(OC)c1OC` [CBK037385] was 113%; that for `O=S(=O)(c1ccccc1)C1CCCCO1` (centres unmarked) [CBK020284] was 91.3%. Still for that read-out and setting: the value for `O=C(CSc1ncccn1)Nc1cccc(Cl)c1` [CBK058217] was 87.6%; that for `CC(C)CN1CCCN(S(=O)(=O)c2ccc(C(F)(F)F)cc2Cl)CC1` [CBK062943] was 86.5%.

Turning to `O=S(=O)(Nc1cccc2nonc12)c1ccccc1Br` [CBK062577], the viability at 28.5 h, 10 µM came out at 102%. On the same count and under the same terms, the value for `CCN(CCC(F)(F)F)C(=O)Cc1csc(NC(=O)c2ccoc2C)n1` [CBK305729] was 83.3%; that for `CN1CCN(C)C(CNC(=O)c2ccc(-c3ccccc3CO)cc2)C1` (centres unmarked) [CBK307475] was 84.2%. Same read-out and setting: the value for `O=C(c1cccc(-c2cncc(-c3ccc(O)cc3)n2)c1)N1CCOCC1` [CBK123796] was 100%; that for `Cn1ccnc1C1(O)CC2CCC(C1)N2C(=O)c1cccc(F)c1` (centres unmarked) [CBK284089] was 93.9%. Same read-out and setting: in the case of `CCC1C(=O)N=C(SCC(=O)Nc2ncccn2)NC1=O` (centres unmarked) [CBK263920] it was 94.6%. With `COC(=O)C(C)(C)C1c2cc(Br)ccc2OC(=O)C1C(=O)c1ccccc1` (centres unmarked) [CBK266690], the viability at 28.5 h, 10 µM came out at 102%. The same measure, in the same setting: the value for `O=C1C2(c3ccccc3)CN(CCCO)CC1(c1ccccc1)CN(CCCO)C2` [CBK265912] was 109%.

Take `O=C(CN1CCC(c2cncc(-c3cccc(C(F)(F)F)c3)n2)CC1)N1CCCC1` [CBK286152]: the viability at 28.5 h, 10 µM worked out at 94.3%. The same measure, in the same setting: the value for `CCS(=O)(=O)N1CCCCCC1c1nn(C)cc1Cl` (centres unmarked) [CBK284672] was 83.6%.

As for `N#Cc1ccc(CNC(=O)N2CCN(Cc3ccccc3)CC2)cc1` [CBK155637], the viability at 28.5 h, 10 µM was found to be 90.1%. The same measure, in the same setting: the value for `COc1ccc([C@@]23CC[C@@H](NC(=O)N(C)c4ccc(C)cc4)C[C@@H]2N(C)CC3)cc1OC` [CBK045681T] was 89.2%. Regarding `FC(F)(F)c1nc2ccccc2nc1SCCc1ccccn1` [CBK103731], the viability at 28.5 h, 10 µM is 109%. On to `COC(=O)c1cccc2c(C)c(C)[nH]c12` [CBK001563], for which the viability at 28.5 h, 10 µM is 97.4%. For `Cc1ccccc1-c1ccc(C(=O)N(C)CCN(C)C)c(N(C)C)n1` [CBK106090], the viability at 28.5 h, 10 µM stood at 96%.

In the case of `NC(=O)c1c(F)cccc1-c1cc(NCCO)nc2[nH]ccc12` [CBK306689], the viability at 28.5 h, 10 µM is 112%. The same measure, in the same setting: the value for `N#Cc1ccncc1NCc1ccccc1CN1CCCC1CO` (centres unmarked) [CBK304021] was 85%; that for `O=C(NC1CC1)C1(Cc2ccccc2-c2ccncc2)CCOCC1` [CBK284785] was 94.1%; that for `CCCCN(C=O)c1c(CC)nc2ccc(C(=O)N3CCN(C)CC3)cn12` [CBK145707] was 93.1%. Still for that read-out and setting: in the case of `CC(C)(C)OC(=O)N1CCN(c2cc(NCc3ccccc3)ncn2)CC1` [CBK000137] it was 94.7%; in that of `O=C(O)C(=C/C=C/Br)C(=O)O` [CBK260906], 92.6%; in that of `NC(=O)CCN1CCC(Cc2ccccc2)CC1` [CBK138317], 117%. On the same count and under the same terms, the value for `CC(=O)N1CC(C(=O)Nc2ncc(-c3ccccc3)n2C)C1` [CBK281373] was 96.1%; that for `c1ccc(CNC2CCc3[nH]c4ccccc4c3C2)cc1` (centres unmarked) [CBK091587T] was 106%.

Consider `O=C(NCCn1cccn1)N1CCC(Cc2ccc(F)cc2)CC1` [CBK304381], for which the viability at 28.5 h, 10 µM is 91.7%. On the same count and under the same terms, the value for `C/C(=N\Nc1ccc(Cl)c(Cl)c1)c1cccnc1` [CBK015914C] was 93.3%.

Consider `O=C(Nc1cccc(-c2nnn[nH]2)c1)Nc1ccc(Cl)c(Cl)c1` [CBK155454], for which the viability at 28.5 h, 10 µM was 96.3%. Still for that read-out and setting: in the case of `CCCN(CCc1ccc(C(F)(F)F)cc1)C1Cc2cc(OC)c(OC)cc2C1` [CBK017829C] it was 103%; in that of `N#Cc1ccc(-n2cc(-c3ccc(F)cc3F)nn2)cc1` [CBK112990], 98.3%. Regarding `Cc1nnsc1C(=O)N[C@H]1CCN2C(=O)N(CCCl)C(=O)[C@@H]2C1` [CBK289550], the viability at 28.5 h, 10 µM (bulk resorufin, single well) came out at 95.6%.

For `COc1c(C)[nH]cc(CN(C)CCC(=O)Nc2cccc(F)c2)c1=O` [CBK304201], the viability at 28.5 h, 10 µM is 90.5%. Still for that read-out and setting: in the case of `CCOC(=O)c1cc(NC(=O)CSc2nc3ccccc3[nH]2)ccc1Cl` [CBK266557] it was 99.8%. The same measure, in the same setting: the value for `CC1CN(S(=O)(=O)c2ccc(NC(=O)c3nc(SCc4ccccc4)ncc3Cl)cc2)CC(C)O1` (centres unmarked) [CBK268930] was 89.3%. As for `Cc1c(C(=O)N2CCN(C3CCCCC3)C(=O)C2)[nH]c2ccccc12` [CBK282539], the viability at 28.5 h, 10 µM was 99.3%. On the same count and under the same terms, the value for `CCOc1ccccc1OCCCOc1ccc(C(=O)O)cc1` [CBK295144] was 110%; that for `Cn1c(=O)c(-c2ccccc2)nc2ccccc21` [CBK016192] was 143%. Same read-out and setting: the value for `Cn1nc(C(C)(C)C)cc1C(=O)N1CCNC(=O)C1Cc1ccc(-c2cccs2)cc1` (centres unmarked) [CBK285810] was 92.2%.

As to `Cc1c(S(=O)(=O)Nc2ccc(C(O)(C(F)(F)F)C(F)(F)F)cc2)cnn1-c1ccccc1` [CBK062099], the viability at 28.5 h, 10 µM was 92.1%. On the same count and under the same terms, the value for `CCOC(=O)N1CCC(NC(=O)N2CCN(c3ccc(F)cc3)CC2)CC1` [CBK156429] was 106%. The same measure, in the same setting: the value for `CCc1ccc(CN2CCC(Oc3ccccc3F)(C(=O)O)CC2)nc1` [CBK307528] was 93.1%.

Regarding `CCc1cccc2c(CC(=O)N(C)CCN(C)C)c(C)[nH]c12` [CBK282673], the viability at 28.5 h, 10 µM was found to be 102%. Still for that read-out and setting: the value for `CC(C)c1cc(C(=O)NCC2CCCN(C(C)C)C2)n(C)n1` (centres unmarked) [CBK282566] was 95.8%; that for `COc1ccc(-n2c(S)nnc2-c2cccs2)cc1` [CBK266832] was 103%; that for `Clc1cc2nc(OCCCc3ccncc3)c(N3CCCC3)nc2cc1Cl` [CBK115774] was 98%. Turning to `O=C(c1ccc2c(c1)C(=O)N(N1C(=O)c3ccccc3C1=O)C2=O)c1ccc2c(c1)C(=O)N(N1C(=O)c3ccccc3C1=O)C2=O` [CBK261182], the viability at 28.5 h, 10 µM was determined as 96.4%. The same measure, in the same setting: the value for `Cc1cccc2c3c([nH]c12)CCN(C(=O)[C@@H]1C[C@@H]2C=C[C@H]1C2)C3` [CBK281656] was 93.6%.

The record behind these values is paper PMC12040169 (PLOS Biology, 2025).
